Source: US4248870A, “Maytansinoids and use” (Takeda Chemical Industries, Ltd., priority 1979, dated 1981)
Converted amounts (≈) assume the structure as drawn.

Assays:
Tetrahymena pyriformis W = experiment: Antiprotozoal activity, growth inhibition by serial dilution method; format: cell-based; conditions: 28° C., 44 to 48 hours, pH 7.0, serial dilution method
Protocol: Antiprotozoal activity of compound (I) was assayed with Tetrahymena pyriformis W as the test organism and a medium composed of 20 g tryptose-peptone (Difco Co.), 1 g yeast extract, 2 glucose, 1000 ml distilled water, 10 ml 1 M phosphate buffer (pH 7.0) as the assay medium. The microorganism was incubated at 28° C. for 44 to 48 hours and the growth inhibitory activity of compound (I) was assayed by the serial dilution method.

melanoma B-16 = experiment: Therapeutic test in mice, melanoma B-16 transplanted intraperitoneally (life span prolongation); format: in vivo; conditions: intraperitoneally once daily for 9 consecutive days
Protocol: (§1) Therapeutic tests were carried out in mice according to NCI-protocols 1,200 and 1,300, Cancer Chemother, Reports, Part 3, 1972, Vol. 3, No. 2, in which leukemia P-388 and melanoma B-16 tumor cells had been intraperitoneally transplanted, compound (I) being administered intraperitoneally once daily for 9 consecutive days.

leukemia P-388 = experiment: Therapeutic test in mice, leukemia P-388 transplanted intraperitoneally (life span prolongation); format: in vivo; conditions: intraperitoneally once daily for 9 consecutive days
Protocol: as §1

`COc1cc2cc(c1Cl)N(C)C(=O)CC(OC(=O)c1ccc(Cl)cc1)C1(C)OC1C(C)C1CC(O)(NC(=O)O1)C(OC)C=CC=C(C)C2` (centres unmarked) [Maytansinol 3-(p-chloro)benzoate, Maytansinol 3-p-chlorobenzoate] gave an MIC (Tetrahymena pyriformis W) of no less than 4 µg/mL.
`COc1cc2cc(c1Cl)N(C)C(=O)CC(OC(=O)CCc1ccccc1)C1(C)OC1C(C)C1CC(O)(NC(=O)O1)C(OC)C=CC=C(C)C2` (centres unmarked) [Maytansinol 3-(3-phenyl)propionate, Maytansinol 3-phenylpropionate] gave an MIC (Tetrahymena pyriformis W) of 2 to 4 µg/mL (≈ 2.87 to 5.74 µM).
With `COc1cc2cc(c1Cl)N(C)C(=O)CC(OC(=O)c1ccccn1)C1(C)OC1C(C)C1CC(O)(NC(=O)O1)C(OC)C=CC=C(C)C2` (stereo not drawn) [Maytansinol 3-α-picolinate, Maytansinol 3-picolinate] the MIC (Tetrahymena pyriformis W) was no less than 4 µg/mL, the “Antitumor activities B-16 (T/C %)” value (melanoma B-16; 100 μg/kg) was 176% and the “Antitumor activities B-16 (T/C %)” value (melanoma B-16; 200 μg/kg) was 173%. For the same compound, the “Antitumor activities P-388 (T/C %)” value (leukemia P-388; 50 μg/kg) was 193% and the “Antitumor activities P-388 (T/C %)” value (leukemia P-388; 100 μg/kg) was 185%.
`COc1cc2cc(c1Cl)N(C)C(=O)CC(OC(=O)c1ccco1)C1(C)OC1C(C)C1CC(O)(NC(=O)O1)C(OC)C=CC=C(C)C2` (centres unmarked) [Maytansinol 3-(2-furane)carboxylate, Maytansinol 3-(2-furan)carboxylate] showed an MIC (Tetrahymena pyriformis W) of no less than 4 µg/mL.
For `COc1cc2cc(c1Cl)N(C)C(=O)CC(OC(=O)c1ccccc1)C1(C)OC1C(C)C1CC(O)(NC(=O)O1)C(OC)C=CC=C(C)C2` (centres unmarked) [Maytansinol 3-benzoate], the MIC (Tetrahymena pyriformis W) was 4 µg/mL (≈ 5.98 µM).
In the case of `COc1cc2cc(c1Cl)N(C)C(=O)CC(OC(=O)C1CCCCC1)C1(C)OC1C(C)C1CC(O)(NC(=O)O1)C(OC)C=CC=C(C)C2` (centres unmarked) [Maytansinol 3-cyclohexane carboxylate, Maytansinol 3-cyclohexanecarboxylate], the MIC (Tetrahymena pyriformis W) is reported as less than 2 µg/mL, the “Antitumor activities B-16 (T/C %)” value (melanoma B-16; 25 μg/kg) is reported as 193% and the “Antitumor activities B-16 (T/C %)” value (melanoma B-16; 50 μg/kg) is reported as 188%. For the same compound, the “Antitumor activities B-16 (T/C %)” value (melanoma B-16; 100 μg/kg) was 193%.
For `COc1cc2cc(c1Cl)N(C)C(=O)CC(OC(=O)c1cccs1)C1(C)OC1C(C)C1CC(O)(NC(=O)O1)C(OC)C=CC=C(C)C2` (centres unmarked) [Maytansinol 3-(2-thiophene)carboxylate], the MIC (Tetrahymena pyriformis W) was no less than 4 µg/mL.
`COc1cc2cc(c1Cl)N(C)C(=O)CC(OC(=O)Cc1ccccc1)C1(C)OC1C(C)C1CC(O)(NC(=O)O1)C(OC)C=CC=C(C)C2` (centres unmarked) [Maytansinol 3-phenylacetate] was tested, and the MIC (Tetrahymena pyriformis W) was less than 2 µg/mL, the “Antitumor activities B-16 (T/C %)” value (melanoma B-16; 12.5 μg/kg) was 207% and the “Antitumor activities B-16 (T/C %)” value (melanoma B-16; 25 μg/kg) was 230%. The “Antitumor activities P-388 (T/C %)” value (leukemia P-388; 12.5 μg/kg) was 164% and the “Antitumor activities P-388 (T/C %)” value (leukemia P-388; 25 μg/kg) was 185%.
Work on `COc1cc2cc(c1Cl)N(C)C(=O)CC(OC(=O)C1CC1)C1(C)OC1C(C)C1CC(O)(NC(=O)O1)C(OC)C=CC=C(C)C2` (centres unmarked) [Maytansinol 3-cyclopropane carboxylate, Maytansinol 3-cyclopropanecarboxylate] yielded an MIC (Tetrahymena pyriformis W) of 4 µg/mL (≈ 6.32 µM).
